Like-named read-outs stand apart in the source and are kept apart here.
Legend:
[1] = tested on: SF-295; experiment: NCI-60 in vitro drug sensitivity testing (SRB); format: cell-based; details: Homo sapiens, SF-295, read-out: GDC-0941 GI50
Excerpt: (§1) Cell lines used in this study were obtained from the National Cancer Institute Developmental Therapeutics program (NCI DTP) and were maintained in RPMI 1640 media (Invitrogen, Grand Island, N.Y.) containing 10% Fetal Bovine Serum (ATCC, Manassas, Va.). Cell lines were used within six months of receipt from the NCI DTP, abrogating the need for reauthentication.
(§2) 14, 2010 and Aug. 9, 2010.

[2] = tested on: SK-OV-3; experiment: NCI-60 in vitro drug sensitivity testing (SRB); format: cell-based; details: Homo sapiens, SK-OV-3, read-out: GDC-0941 GI50
Excerpt: as §1, §2

[3] = tested on: UACC-257; experiment: NCI-60 in vitro drug sensitivity testing (SRB); format: cell-based; details: Homo sapiens, UACC-257, read-out: GDC-0941 GI50
Excerpt: as §1, §2

[4] = tested on: LOX IMVI; experiment: NCI-60 in vitro drug sensitivity testing (SRB); format: cell-based; details: Homo sapiens, read-out: GDC-0941 GI50
Excerpt: as §1, §2

[5] = tested on: NCI-H522; experiment: NCI-60 in vitro drug sensitivity testing (SRB); format: cell-based; details: Homo sapiens, NCI-H522, read-out: GDC-0941 GI50
Excerpt: as §1, §2

[6] = tested on: HCT-15; experiment: NCI-60 in vitro drug sensitivity testing (SRB); format: cell-based; details: Homo sapiens, HCT-15, read-out: GDC-0941 GI50
Excerpt: as §1, §2

[7] = tested on: HCC-2998; experiment: NCI-60 in vitro drug sensitivity testing (SRB); format: cell-based; details: Homo sapiens, read-out: GDC-0941 GI50
Excerpt: as §1, §2

[8] = tested on: SF-268; experiment: NCI-60 in vitro drug sensitivity testing (SRB); format: cell-based; details: Homo sapiens, SF-268, read-out: GDC-0941 GI50
Excerpt: as §1, §2

[9] = tested on: NCI-H322M; experiment: NCI-60 in vitro drug sensitivity testing (SRB); format: cell-based; details: Homo sapiens, read-out: GDC-0941 GI50
Excerpt: as §1, §2

[10] = tested on: RXF 393; experiment: NCI-60 in vitro drug sensitivity testing (SRB); format: cell-based; details: Homo sapiens, RXF 393, read-out: GDC-0941 GI50
Excerpt: as §1, §2

[11] = tested on: HOP-62; experiment: NCI-60 in vitro drug sensitivity testing (SRB); format: cell-based; details: Homo sapiens, HOP-62, read-out: GDC-0941 GI50
Excerpt: as §1, §2

[12] = tested on: SF-539; experiment: NCI-60 in vitro drug sensitivity testing (SRB); format: cell-based; details: Homo sapiens, SF-539, read-out: GDC-0941 GI50
Excerpt: as §1, §2

[13] = tested on: A498; experiment: NCI-60 in vitro drug sensitivity testing (SRB); format: cell-based; details: Homo sapiens, A498, read-out: GDC-0941 GI50
Excerpt: as §1, §2

[14] = tested on: KM12; experiment: NCI-60 in vitro drug sensitivity testing (SRB); format: cell-based; details: Homo sapiens, KM12, read-out: GDC-0941 GI50
Excerpt: as §1, §2

[15] = tested on: NCI/ADR-RES; experiment: NCI-60 in vitro drug sensitivity testing (SRB); format: cell-based; details: Homo sapiens, read-out: GDC-0941 GI50
Excerpt: as §1, §2

[16] = tested on: K-562; experiment: NCI-60 in vitro drug sensitivity testing (SRB); format: cell-based; details: Homo sapiens, K562, read-out: GDC-0941 GI50
Excerpt: as §1, §2

[17] = tested on: HT29; experiment: NCI-60 in vitro drug sensitivity testing (SRB); format: cell-based; details: Homo sapiens, HT-29, read-out: GDC-0941 GI50
Excerpt: as §1, §2

[18] = tested on: OVCAR-5; experiment: NCI-60 in vitro drug sensitivity testing (SRB); format: cell-based; details: Homo sapiens, OVCAR-5, read-out: GDC-0941 GI50
Excerpt: as §1, §2

[19] = tested on: MALME-3M; experiment: NCI-60 in vitro drug sensitivity testing (SRB); format: cell-based; details: Homo sapiens, read-out: GDC-0941 GI50
Excerpt: as §1, §2

[20] = tested on: CAKI-1; experiment: NCI-60 in vitro drug sensitivity testing (SRB); format: cell-based; details: Homo sapiens, CAKI-1, read-out: GDC-0941 GI50
Excerpt: as §1, §2

[21] = tested on: SK-MEL-5; experiment: NCI-60 in vitro drug sensitivity testing (SRB); format: cell-based; details: Homo sapiens, SK-MEL-5, read-out: GDC-0941 GI50
Excerpt: as §1, §2

[22] = tested on: EKVX; experiment: NCI-60 in vitro drug sensitivity testing (SRB); format: cell-based; details: Homo sapiens, read-out: GDC-0941 GI50
Excerpt: as §1, §2

[23] = tested on: MDA-MB-435; experiment: NCI-60 in vitro drug sensitivity testing (SRB); format: cell-based; details: Homo sapiens, MDA-MB-435, read-out: GDC-0941 GI50
Excerpt: as §1, §2

[24] = tested on: NCI-H460; experiment: NCI-60 in vitro drug sensitivity testing (SRB); format: cell-based; details: Homo sapiens, NCI-H460, read-out: GDC-0941 GI50
Excerpt: as §1, §2

[25] = tested on: RPMI-8226; experiment: NCI-60 in vitro drug sensitivity testing (SRB); format: cell-based; details: Homo sapiens, RPMI-8226, read-out: GDC-0941 GI50
Excerpt: as §1, §2

[26] = tested on: TK-10; experiment: NCI-60 in vitro drug sensitivity testing (SRB); format: cell-based; details: Homo sapiens, TK-10, read-out: GDC-0941 GI50
Excerpt: as §1, §2

[27] = tested on: MDA-MB-231; experiment: NCI-60 in vitro drug sensitivity testing (SRB); format: cell-based; details: Homo sapiens, MDA-MB-231, read-out: GDC-0941 GI50
Excerpt: as §1

[28] = tested on: MCF7; experiment: NCI-60 in vitro drug sensitivity testing (SRB); format: cell-based; details: Homo sapiens, MCF7, read-out: GDC-0941 GI50
Excerpt: as §1

[29] = tested on: OVCAR-4; experiment: NCI-60 in vitro drug sensitivity testing (SRB); format: cell-based; details: Homo sapiens, OVCAR-4, read-out: GDC-0941 GI50
Excerpt: as §1

[30] = tested on: NCI-60 tumor cell line collection; experiment: NCI-60 in vitro drug sensitivity testing, whole panel; format: cell-based, human; details: for GI50: Homo sapiens, all 60 NCI-60 cell lines
Excerpt: The NCI-60 tumor cell line collection is a panel of 60 diverse human cancer cell lines.
as §1, §2

## CS(=O)(=O)N1CCN(Cc2cc3nc(-c4cccc5[nH]ncc45)nc(N4CCOCC4)c3s2)CC1 [GDC-0941]
[1]
  GI50: 110 nM
[2]
  GI50: 83 nM
[3]
  GI50: 78 nM
[4]
  GI50: 708 nM
[5]
  GI50: 372 nM
[6]
  GI50: 209 nM
[7]
  GI50: 1320 nM
[8]
  GI50: 741 nM
[9]
  GI50: 209 nM
[10]
  GI50: 251 nM
[11]
  GI50: 363 nM
[12]
  GI50: 251 nM
[13]
  GI50: 123 nM
[14]
  GI50: 708 nM
[15]
  GI50: 2040 nM
[16]
  GI50: 3470 nM
[17]
  GI50: 120 nM
[18]
  GI50: 117 nM
[19]
  GI50: 138 nM
[20]
  GI50: 178 nM
[21]
  GI50: 1290 nM
[22]
  GI50: 195 nM
[23]
  GI50: 204 nM
[24]
  GI50: 204 nM
[25]
  GI50: 3470 nM
[26]
  GI50: 550 nM
[27]
  GI50: 1480 nM
[28]
  GI50: 55 nM
[29]
  GI50: 3800 nM
[30]; read-out: GI50 values, range over the panel
  GI50: 11 to 3800 nM
[30]; read-out: Mean GI50 for all cell lines
  GI50: 660 nM
[30]; nine tumor types represented in the NCI-60 cell line panel
  Anti-proliferative activity across the panel: broad anti-proliferative activity

Reference: patent US20130274127A1, “GENE EXPRESSION MARKERS FOR PREDICTION OF RESPONSE TO PHOSPHOINOSITIDE 3-KINASE INHIBITORS” (GENOMIC HEALTH, INC., priority 2012, published 2013)
